The values that follow come from US6623933B1 (priority 1999, dated 2003).

Some targets named below: NR1101/NR2A (Rattus norvegicus, UniProt P35439+Q00959); NR1001/NR2A (Rattus norvegicus, UniProt P35439+Q00959); NR1010/NR2A (Rattus norvegicus, UniProt P35439+Q00959); NR1/NR2A (NR1100) (Rattus norvegicus, UniProt P35439+Q00959); NR1/NR2C (NR1100) (Rattus norvegicus, UniProt P35439+Q00961); NR1/NR2D (NR1100) (Rattus norvegicus, UniProt P35439+Q62645).
Experiment [1] addresses T1, NR1100+NR2A NMDA receptor (Rattus norvegicus, UniProt P35439+Q00959).
T1 construct: expressed in transfected cells; host or cells: Xenopus oocytes co-injected with NR1100 and NR2A cRNA
The experiment is described as follows: NMDA-induced currents, Xenopus oocytes, Example 1. The following applies: for Percentage change in NMDA response: NR1100 + NR2A, steroid 100 μM, −100 mV. It is filed as cell-based. From the text:
Plasmids were obtained from the following individuals: Dr. Suzanne Zukin (Albert Einstein College of Medicine, Bronx, N.Y.), NR1100; Dr. Shigetada Nakanishi (Kyoto University Faculty of Medicine, Kyoto, Japan), NR2A; Dr. Stephen Heinemann (Salk Institute, San Diego, Calif.), GluR1 (flop), GluR3 (flop), and GluR6. Plasmids were linearized with BamH1 (NR1100), XhoI (NR2A, GluR1, GluR3) or XbaI (GluR6) prior to in vitro transcription with T3 (GluR1, GluR3, GluR6) or T7 (NR1100, NR2A) RNA polymerase using the Message Machine kit (Ambion, Austin, Tex.). […] RNA solutions (50-70 nl) were injected into oocytes for delivery of NR1100 (5 ng), NR1100:NR2A (1:10 ng), GluR1 (5 ng). GluR3 (5 ng), or GluR6 (20 ng). Oocytes were incubated in ND96 at 18-20° C. for 3-7 days prior to electrophysiological recording.
Steroid solutions were prepared as 70-100 mM frozen stocks in dimethyl sulfoxide (DMSO). The final DMSO concentration of all recording solutions was between 0.1% to 0.5% and was constant within an experiment.
Perfusion control and data acquisition were carried out using an automated oocyte electrophysiology workstation that was developed for the rapid collection of concentration-response data and real-time waveform analysis (Yaghoubi et al., Soc. Neurosci. Abstr. 20: 1109 (1995)). This system is implemented on a Macintosh IIci computer (Apple Computer, Cupertino, Calif.) equipped with MacA-DIOS II data acquisition and control hardware (GW Instruments, Somerville, Mass.). Drug application is controlled by the computer through a series of valves, using custom-written software based on the SuperScope II development environment, improving the efficiency and reproducibility of data collection. Experiments were carried out using an Axoclamp-2A voltage clamp amplifier (Axon Instruments, Foster City, Calif.) in two-electrode voltage clamp mode. Intracellular microelectrodes (1-3 MΩ) were filled with 3 M KCl. […] Membrane potential was clamped at −60 to −70 mV and stepped to −100 mV at the start of data acquisition unless otherwise stated. […] Current and voltage recordings were digitized at 100 Hz for analysis. GluR6 injected oocytes were treated for 10 min with 10 μg/ml concanavalin A to prevent fast desensitization.
Results are expressed as mean±S.E.M. Statistical comparisons were made using Student's t-test.

For another experiment, the target named is Penta-Mutant/NR2A (Rattus norvegicus, UniProt P35439+Q00959, K193A/K202A/R187A/R233A/R252A). The experiment is described as follows: NMDA-induced currents, Xenopus oocytes, Example 5. The following applies: 300 uM NMDA, 50 uM Glycine.
The target in another experiment is NR1111/NR2A (Rattus norvegicus, UniProt P35439+Q00959). Put plainly: NMDA-induced currents of NR1 splice variants, Xenopus oocytes, Example 4. The note with it: for maximum relative current (MRC) / percentage potentiation of the maximum NMDA response: NR1111/2A. The experiment is classed as cell-based. More on the design: expressed in transfected cells; host or cells: Xenopus oocytes injected with NR1111 and NR2A mRNA. As for the experimental part: Overnight cultures (500 ml) of transformed bacterial cells were prepared in order to grow sufficient quantities for maxiprep isolation of the plasmid CDNA. Maxipreps were done using a Sorvall RC-5B ultracentrifuge, Qiagen columns and cDNA was quantitated with spectrophotometry (OD260 and OD260/ OD280 ratio). The resulting plasmid cDNA was linearized by digestion with an appropriate restriction enzyme that cleaves distal to the cDNA insert (XhoI for NR2A or NotI for NR1100, NR1000, NR1111, NR1011, NR1101, NR1001). […] The samples were stored at −20° C. until use.
In vitro transcription was performed using the Ambion mMessage mMachine kit with T7 (NR1100, NR1000, NR1111, NR1011, NR1101, NR1001) RNA polymerase. The reaction was assembled on ice and allowed to incubate at 37° C. for 1-2 hr. The resulting mRNA was precipitated (reaction termination) using lithium chloride/5 mM EDTA solution and dissolved in RNase-free H2O. The concentration (OD260) and OD260/OD280 ratio (should be more than 1.5) was determined by spectrophotometer. The yield of mRNA was generally 15-30 μg. mRNA was stored at −80° C. until use.
Intracellular recording microelectrodes were fabricated from 100 μl borosilicate glass disposable micropipettes using a 2-step protocol on a standard horizontal Flaming-Brown micropipette puller.

“And” between values parts separate entries of the source, which are not always exact repeats. Equal values may be shown once. Where a name gives a salt, the structure may show the parent alone.

Sequence of NR1/NR2D (NR1100) (Q62645 28-1323, other chains not shown): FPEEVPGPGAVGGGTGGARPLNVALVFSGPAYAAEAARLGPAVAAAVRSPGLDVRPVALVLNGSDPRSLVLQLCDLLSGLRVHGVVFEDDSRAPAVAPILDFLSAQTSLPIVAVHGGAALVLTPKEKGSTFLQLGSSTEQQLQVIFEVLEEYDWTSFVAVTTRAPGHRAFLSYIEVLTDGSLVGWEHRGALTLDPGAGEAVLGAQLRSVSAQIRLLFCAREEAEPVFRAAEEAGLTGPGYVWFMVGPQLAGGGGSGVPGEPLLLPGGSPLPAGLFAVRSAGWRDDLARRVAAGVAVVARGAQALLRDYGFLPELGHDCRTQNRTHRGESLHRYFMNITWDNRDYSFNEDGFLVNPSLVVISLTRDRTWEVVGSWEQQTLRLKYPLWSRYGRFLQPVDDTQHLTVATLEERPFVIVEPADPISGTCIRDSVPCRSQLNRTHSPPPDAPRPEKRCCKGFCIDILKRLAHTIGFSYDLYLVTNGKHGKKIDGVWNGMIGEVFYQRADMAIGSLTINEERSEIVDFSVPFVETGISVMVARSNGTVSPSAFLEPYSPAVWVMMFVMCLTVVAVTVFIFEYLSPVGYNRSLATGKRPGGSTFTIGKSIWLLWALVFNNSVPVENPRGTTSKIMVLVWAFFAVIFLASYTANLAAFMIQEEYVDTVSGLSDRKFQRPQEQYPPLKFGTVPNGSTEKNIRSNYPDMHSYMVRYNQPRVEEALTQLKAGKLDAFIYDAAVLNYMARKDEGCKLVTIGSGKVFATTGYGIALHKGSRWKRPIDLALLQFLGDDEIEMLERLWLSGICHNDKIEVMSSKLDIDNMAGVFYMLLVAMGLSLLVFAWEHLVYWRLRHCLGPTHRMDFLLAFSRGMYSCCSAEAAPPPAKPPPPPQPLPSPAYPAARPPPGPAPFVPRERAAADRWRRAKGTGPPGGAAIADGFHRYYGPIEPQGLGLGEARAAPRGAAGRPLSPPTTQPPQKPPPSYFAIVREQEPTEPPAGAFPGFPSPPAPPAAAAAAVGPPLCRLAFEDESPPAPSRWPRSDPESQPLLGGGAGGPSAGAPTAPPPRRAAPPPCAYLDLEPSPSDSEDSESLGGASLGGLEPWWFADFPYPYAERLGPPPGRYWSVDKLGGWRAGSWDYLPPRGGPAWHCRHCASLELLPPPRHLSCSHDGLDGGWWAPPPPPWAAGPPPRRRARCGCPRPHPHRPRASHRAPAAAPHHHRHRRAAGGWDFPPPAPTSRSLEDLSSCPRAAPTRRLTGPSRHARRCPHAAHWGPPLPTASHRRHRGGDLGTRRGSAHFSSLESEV
Sequence of NR1010/NR2A (Q00959 23-1464, other chains not shown): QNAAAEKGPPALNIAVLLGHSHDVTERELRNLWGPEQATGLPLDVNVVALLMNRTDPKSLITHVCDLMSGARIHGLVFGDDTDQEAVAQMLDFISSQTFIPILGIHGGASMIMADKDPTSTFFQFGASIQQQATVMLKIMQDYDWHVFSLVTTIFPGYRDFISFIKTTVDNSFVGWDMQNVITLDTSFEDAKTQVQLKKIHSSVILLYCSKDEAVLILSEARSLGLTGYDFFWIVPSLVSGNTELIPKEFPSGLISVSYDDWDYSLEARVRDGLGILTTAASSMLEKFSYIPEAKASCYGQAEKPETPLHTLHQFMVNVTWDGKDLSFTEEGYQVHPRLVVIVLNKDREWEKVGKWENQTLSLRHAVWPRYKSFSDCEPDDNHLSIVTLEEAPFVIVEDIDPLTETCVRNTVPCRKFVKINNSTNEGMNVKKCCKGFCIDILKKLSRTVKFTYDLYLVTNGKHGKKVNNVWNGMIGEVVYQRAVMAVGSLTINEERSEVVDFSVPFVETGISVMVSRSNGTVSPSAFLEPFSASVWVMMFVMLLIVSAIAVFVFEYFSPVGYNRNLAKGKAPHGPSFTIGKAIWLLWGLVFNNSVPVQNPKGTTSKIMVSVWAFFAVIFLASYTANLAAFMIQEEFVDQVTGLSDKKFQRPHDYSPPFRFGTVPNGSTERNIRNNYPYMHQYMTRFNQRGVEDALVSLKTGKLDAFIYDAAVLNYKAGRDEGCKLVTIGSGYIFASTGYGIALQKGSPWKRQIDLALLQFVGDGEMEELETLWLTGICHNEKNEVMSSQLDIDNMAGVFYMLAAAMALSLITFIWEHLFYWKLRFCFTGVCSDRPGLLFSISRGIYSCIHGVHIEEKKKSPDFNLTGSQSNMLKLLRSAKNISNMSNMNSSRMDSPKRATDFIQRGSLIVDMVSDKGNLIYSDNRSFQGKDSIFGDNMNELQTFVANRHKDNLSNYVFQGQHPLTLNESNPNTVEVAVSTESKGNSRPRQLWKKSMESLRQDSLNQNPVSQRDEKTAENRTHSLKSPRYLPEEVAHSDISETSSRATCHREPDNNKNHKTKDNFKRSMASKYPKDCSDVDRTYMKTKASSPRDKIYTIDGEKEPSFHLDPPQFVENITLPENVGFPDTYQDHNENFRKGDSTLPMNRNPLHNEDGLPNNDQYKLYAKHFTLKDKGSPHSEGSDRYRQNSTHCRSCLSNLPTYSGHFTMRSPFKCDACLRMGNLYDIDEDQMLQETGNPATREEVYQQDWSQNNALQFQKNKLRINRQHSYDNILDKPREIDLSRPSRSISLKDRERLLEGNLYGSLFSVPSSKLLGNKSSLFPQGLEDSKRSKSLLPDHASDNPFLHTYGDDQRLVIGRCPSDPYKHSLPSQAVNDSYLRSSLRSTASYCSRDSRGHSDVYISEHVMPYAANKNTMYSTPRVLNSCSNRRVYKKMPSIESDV
Sequence of NR1101/NR2A (Q00959 23-1464, other chains not shown): as above
Text for NR1/NR2A (NR1100): Plasmids containing the NR1100 (NR1G) and NR2A cDNA inserts were kindly provided by Dr. Nakanishi (Kyoto University Faculty of Medicine, Kyoto, Japan). Plasmids containing the NR2B, NR2C and NR2D cDNA inserts were kindly provided by Dr. P. Seeburg (Heidelberg University, Heidelberg, Germany). Plasmids were linearized with appropriate restriction enzyme prior to in vitro transcription using the Message Machine kit (Ambion, Inc., Austin, Tex.).
Female, oocyte-positive Xenopus laevis frogs were purchased from Xenopus I (Dexter, Mich.). […] Oocytes were injected with 50 nL of RNA solutions using an electronic microinjector (Drummond Inc., Broomall, Pa.). […] The injected oocytes were used for experiments following 1-5 days of incubation in Barth's solution at 18-20° C.
The microelectrodes were fabricated from borosilicate glass capillaries with a programmed puller (Sutter Instrument Co., Calif.). Microelectrode resistance was 1-3 MΩ_when filled with 3 M KCl.
Except where otherwise stated, oocytes were clamped at a holding potential of −70 mV during data acquisition. The membrane current was filtered at 500 Hz and sampled at 100 Hz. Drugs were applied using a gravity-driven external perfusion system. The working volume of the recording chamber was 30 μl and the rate of the perfusion was 50 μl/sec. The drug application lasted 10 sec and was followed by 60 s wash. Data acquisition and external perfusion were controlled using custom-written software implemented in the SuperScope II development environment (GW Instruments, Mass.). All experiments were performed at room temperature of 22-24° C. Peak or steady-state current measurements were normalized and expressed as a fraction of the peak or steady-state control current measurements, which were performed before and after application of every single concentration of agonists or steroids.
Concentration-response data were analyzed by nonlinear regress ion using the logistic equation Response=Emax/(1+(EC50/c)^nH), where c is concentration, Emaxis the maximum response, nHis the Hill coefficient. The data are presented as mean±SEM. EC50values are averaged as logarithms (De Lean et al., Am. J. Physiol. 235: E97-E102 (1978))±the SEM of the log EC50. […] The pooled data were simultaneously fitted to the logistic equation, either with Emax and EC50 constrained to be identical in the presence and absence of PS, or allowing one or both to vary independently. […] This was regarded as indicating a significant treatment effect of PS, but the change in EC50and Emaxwas not considered significant. […] No attempt was made to test the generally small changes in nHfor statistical significance.
Experimental for Penta-Mutant/NR2A: Plasmids were linearized with appropriate restriction enzyme prior to in vitro transcription using the Message Machine kit (Ambion, Inc., Austin, Tex.).
Female, oocyte positive Xenopus laevis frogs were purchased from Xenopus I (Dexter, Mich). […] Oocytes were injected with 50 nL of RNA solutions using an electronic microinjector (Drummond Inc., Broomall, Pa.). […] The injected oocytes were used for experiments following 1-5 days of incubation in Barth's solution at 18-20° C.
The microelectrodes were fabricated with a programmed puller (Sutter Instrument Co., Calif.) from borosilicate glass capillaries and were filled with 3 M KCl solution. The resistance of filled microelectrodes was in the range of 1-3 MΩ. […] If not mentioned otherwise, during data acquisition oocytes were clamped at a holding potential of −70 mV. The membrane current was filtered at 500 Hz and sampled at 100 Hz. Drugs were applied using a gravity driven external perfusion system. The working ,volume of the recording chamber was 30 μl and the rate of the perfusion was 50 μl/sec. The drug application lasted 10 sec and was followed by a 60 sec wash. The data acquisition and external perfusion control were done using the SuperScopeII software package (GW Instruments, Mass.). All experiments were performed at room temperature (22-24° C.). Peak or steady-state current measurements were normalized and expressed as a fraction of the peak or steady-state control current measurements, which were performed before and after application of every single consentration of agonist or steroid. […] The data are presented as mean±S.E.M. with number of experiments in parentheses.

The term EC50 denotes the concentration needed to bring the measured effect to its halfway point. Read a low EC50 as an effect from little substance. The inhibition is the relative decrease from the control value, in per cent. On to `CC(=O)[C@H]1CC[C@H]2[C@@H]3CC[C@@H]4C[C@H](OS(=O)(=O)O)CC[C@]4(C)[C@H]3CC[C@]12C` [3α5βS, 3α5β-pregnanolone sulfate], for which the EC50 in [1] was 41 µM. Further, the “Percentage change in NMDA response” value in experiment [1] (100 μM NMDA) is −64 ± 3(7) %. Besides, the “3α5βS Emax” value on NR1101/NR2A (splice variant 101 /NR2A) is listed as −0.90 ± 0.07; at NR1001/NR2A (splice variant 001 /NR2A), −0.89 ± 0.05; at NR1010/NR2A (splice variant 010 /NR2A), −0.85 ± 0.02. The “3α5βS nHill” value at NR1101/NR2A (splice variant 101 /NR2A) is on record as 1.05 ± 0.25; at NR1001/NR2A (splice variant 001 /NR2A) it was 0.95 ± 0.11; at NR1010/NR2A (splice variant 010 /NR2A) it was 1.04 ± 0.06. The “3α5βS nH” value at NR1/NR2A (NR1100) was 1.39 ± 0.07; at NR1/NR2C (NR1100) (NR1/NR2C), 1.34 ± 0.04; at NR1/NR2D (NR1100), 1.14 ± 0.16. Besides, the “percent decrease in maximum inward current” value on Penta-Mutant/NR2A (Penta-Mutant/NR2A, 100 uM steroid) is given as 42.79±2.29%. Besides, the inhibition at 100 µM at NR1111/NR2A (pH 7.5, read-out: percentage inhibition of the maximum NMDA response) came to 59%.
pregnenolone sulfate [PS]: in [1] (100 μM NMDA), the “Percentage change in NMDA response” value was “+281 ± 27(7) %”. For the same molecule, the “maximum enhancement of NMDA response” value in experiment [1] (NR1100+NR2A, 100 μM NMDA) stood at 343%. Besides, the “steroid Emax (NMDA-induced current relative to control)” value in experiment [1] (NR1100+NR2A, 100 μM NMDA) was found to be 4.43. Also, the “Maximum potentiation of NMDA-induced current by PS” value at NR1101/NR2A (NR1101/NR2A) came to 1.66±0.10 fold; on NR1001/NR2A (NR1001/NR2A), 2.19±0.09 fold. Besides, the entries for the “PS Emax” value on NR1101/NR2A (NR1101/NR2A), on NR1001/NR2A (NR1001/NR2A) and at NR1010/NR2A (NR1010/NR2A) were 0.66 ± 0.10, 1.19 ± 0.09 and 1.03 ± 0.09, respectively. Moreover, the “PS nHill” value on NR1101/NR2A (NR1101/NR2A) was determined as 1.52 ± 0.24; on NR1001/NR2A (NR1001/NR2A), 1.14 ± 0.10; on NR1010/NR2A (NR1010/NR2A), 1.30 ± 0.18. Moreover, the “PS nH” value was determined as 1.33 ± 0.08 at NR1/NR2A (NR1100), 1.32 ± 0.29 on NR1/NR2C (NR1100) (NR1/NR2C) and 1.16 ± 0.08 at NR1/NR2D (NR1100). Further, the “PS Emax (% Change)” value at NR1/NR2A (NR1100) (80 μM NMDA, 10 μM glycine) is “+167 ± 7%”; at NR1/NR2C (NR1100) (NR1/NR2C, […] μM NMDA, 10 μM glycine) it was −63 ± 9%; on NR1/NR2D (NR1100) (10 μM NMDA, 10 μM glycine) it was −70 ± 6%. The “enhancement of NMDA plus glycine current” value on NR1/NR2A (NR1100) (100 μM PS, 80 μM NMDA) came out at 62±8%. The “fold less potent as inhibitor of NR1/NR2C and NR1/NR2D than in potentiating NR1/NR2A and NR1/NR2B” value on NR1/NR2C (NR1100) was 3.4- to 5.6 fold. The “inhibition of NMDA-induced current” value at NR1/NR2C (NR1100) (NR1/NR2C, 100 μM PS, […] μM NMDA) amounted to 35±3%. On NR1/NR2D (NR1100) (100 μM PS, 10 μM NMDA), the “inhibition of NMDA response” value was 26±1%. Further, the “reduction in PS potentiation of the NMDA response vs wild type” value at Penta-Mutant/NR2A (100 uM PS) is 40% and 47.5±8.80%. In addition, the “maximum relative current (MRC)” value at NR1111/NR2A (100 μM PS, 200 μM NMDA+10 μM glycine, pH 7.5) was 2.28; at NR1111/NR2A (100 μM PS, pH 6.5) it was 4.06; on NR1111/NR2A (100 μM PS, pH 8.5), 1.59 and 1.58. The “percentage potentiation of the maximum NMDA response” value was 103% on NR1111/NR2A (100 μM PS, pH 7.5) and 47% at NR1111/NR2A (100 μM PS, pH 8.5). The “difference in mrc between pH=6.5 and pH=7.5” value at NR1111/NR2A (NR1111/NR2A, 100 μM PS) came to 1.8 fold. On NR1111/NR2A (NR1111/NR2A, 100 μM PS), the “difference in mrc between pH=7.5 and pH=8.5” value came out at 1.4 fold.
